Laboratory results taken from the NIST ThermoML archive (doi:10.1016/j.fluid.2006.03.020).
Numbers after ± are expanded uncertainties.

Assay: excess molar enthalpy (molar enthalpy of mixing); xn = mol fraction of the nth substance listed
Details: 303.15 K, 101 kPa, Liquid, Flow calorimetry

**Q.** With `C1COCCO1` [1,4-dioxane] + C1CCCCC1 as the molecule, how does the excess molar enthalpy (x1 = 0.0547) read?
**A.** 0.0884 ± 0.00287 kcal/mol

**Q.** What about the excess molar enthalpy (x1 = 0.153) of the same molecule?
**A.** 0.211 ± 0.00311 kcal/mol

**Q.** And the excess molar enthalpy (x1 = 0.2558)?
**A.** 0.302 ± 0.00335 kcal/mol

**Q.** What about the excess molar enthalpy (x1 = 0.3916) of the same molecule?
**A.** 0.3674 ± 0.00359 kcal/mol

**Q.** What about the excess molar enthalpy (x1 = 0.5072) of the same molecule?
**A.** 0.38 ± 0.00382 kcal/mol

**Q.** And the excess molar enthalpy (x1 = 0.6511)?
**A.** 0.346 ± 0.00359 kcal/mol

**Q.** What about the excess molar enthalpy (x1 = 0.7029) of the same molecule?
**A.** 0.315 ± 0.00335 kcal/mol

**Q.** What about the excess molar enthalpy (x1 = 0.7606) of the same molecule?
**A.** 0.269 ± 0.00335 kcal/mol

**Q.** What about the excess molar enthalpy (x1 = 0.8499) of the same molecule?
**A.** 0.189 ± 0.00311 kcal/mol

**Q.** What about the excess molar enthalpy (x1 = 0.9288) of the same molecule?
**A.** 0.097 ± 0.00287 kcal/mol

**Q.** For `C1COCCO1` [1,4-dioxane] + CCCCCCCC, which excess molar enthalpy (x1 = 0.0577) is on record?
**A.** 0.0985 ± 0.00287 kcal/mol

**Q.** And the excess molar enthalpy (x1 = 0.1002)?
**A.** 0.161 ± 0.00311 kcal/mol

**Q.** What about the excess molar enthalpy (x1 = 0.151) of the same molecule?
**A.** 0.228 ± 0.00311 kcal/mol

**Q.** And the excess molar enthalpy (x1 = 0.2075)?
**A.** 0.291 ± 0.00335 kcal/mol

**Q.** And the excess molar enthalpy (x1 = 0.2491)?
**A.** 0.334 ± 0.00359 kcal/mol

**Q.** What about the excess molar enthalpy (x1 = 0.3048) of the same molecule?
**A.** 0.376 ± 0.00382 kcal/mol

**Q.** What about the excess molar enthalpy (x1 = 0.3676) of the same molecule?
**A.** 0.4156 ± 0.00406 kcal/mol

**Q.** And the excess molar enthalpy (x1 = 0.4092)?
**A.** 0.4316 ± 0.00406 kcal/mol

**Q.** And the excess molar enthalpy (x1 = 0.4536)?
**A.** 0.4479 ± 0.00406 kcal/mol

**Q.** And the excess molar enthalpy (x1 = 0.507)?
**A.** 0.4522 ± 0.00406 kcal/mol

**Q.** And the excess molar enthalpy (x1 = 0.5583)?
**A.** 0.4529 ± 0.00406 kcal/mol

**Q.** And the excess molar enthalpy (x1 = 0.6089)?
**A.** 0.4381 ± 0.00406 kcal/mol

**Q.** What about the excess molar enthalpy (x1 = 0.6599) of the same molecule?
**A.** 0.4195 ± 0.00406 kcal/mol

**Q.** What about the excess molar enthalpy (x1 = 0.6959) of the same molecule?
**A.** 0.4001 ± 0.00382 kcal/mol

**Q.** What about the excess molar enthalpy (x1 = 0.7553) of the same molecule?
**A.** 0.3599 ± 0.00359 kcal/mol

**Q.** And the excess molar enthalpy (x1 = 0.8045)?
**A.** 0.314 ± 0.00359 kcal/mol

**Q.** What about the excess molar enthalpy (x1 = 0.8586) of the same molecule?
**A.** 0.248 ± 0.00335 kcal/mol

**Q.** What about the excess molar enthalpy (x1 = 0.8997) of the same molecule?
**A.** 0.192 ± 0.00311 kcal/mol

**Q.** And the excess molar enthalpy (x1 = 0.9352)?
**A.** 0.131 ± 0.00311 kcal/mol

**Q.** Which excess molar enthalpy (x1 = 0.0275) does the source give for `CCCCCCCC` [octane] + C1CCCCC1 here?
**A.** 0.0124 ± 0.00239 kcal/mol

**Q.** What about the excess molar enthalpy (x1 = 0.0507) of the same molecule?
**A.** 0.0191 ± 0.00239 kcal/mol

**Q.** And the excess molar enthalpy (x1 = 0.0896)?
**A.** 0.0301 ± 0.00239 kcal/mol

**Q.** What about the excess molar enthalpy (x1 = 0.1482) of the same molecule?
**A.** 0.0413 ± 0.00239 kcal/mol

**Q.** What about the excess molar enthalpy (x1 = 0.1912) of the same molecule?
**A.** 0.0492 ± 0.00239 kcal/mol

**Q.** And the excess molar enthalpy (x1 = 0.2487)?
**A.** 0.055 ± 0.00239 kcal/mol

**Q.** What about the excess molar enthalpy (x1 = 0.2922) of the same molecule?
**A.** 0.0588 ± 0.00239 kcal/mol

**Q.** What about the excess molar enthalpy (x1 = 0.3709) of the same molecule?
**A.** 0.0619 ± 0.00239 kcal/mol

**Q.** And the excess molar enthalpy (x1 = 0.4676)?
**A.** 0.0617 ± 0.00239 kcal/mol

**Q.** What about the excess molar enthalpy (x1 = 0.5738) of the same molecule?
**A.** 0.0574 ± 0.00239 kcal/mol

**Q.** What about the excess molar enthalpy (x1 = 0.642) of the same molecule?
**A.** 0.0516 ± 0.00239 kcal/mol

**Q.** What about the excess molar enthalpy (x1 = 0.7256) of the same molecule?
**A.** 0.043 ± 0.00239 kcal/mol

**Q.** What about the excess molar enthalpy (x1 = 0.79) of the same molecule?
**A.** 0.0356 ± 0.00239 kcal/mol

**Q.** And the excess molar enthalpy (x1 = 0.8267)?
**A.** 0.0296 ± 0.00239 kcal/mol

**Q.** And the excess molar enthalpy (x1 = 0.869)?
**A.** 0.0237 ± 0.00239 kcal/mol

**Q.** And the excess molar enthalpy (x1 = 0.8976)?
**A.** 0.0179 ± 0.00239 kcal/mol
